From paper PMC12543186, “Discovery of C-12 dithiocarbamate andrographolide analogue as a novel antioxidant and α-glucosidase inhibitors: In vitro and in silico studies” (PLOS One, 2025) come the findings set out here.

The target of test [1] is T1, α-glucosidase from Saccharomyces cerevisiae (Saccharomyces cerevisiae, UniProt P38158). Briefly: α-glucosidase inhibition activity (p-NPG substrate). The test is classed as biochemical. Particulars: for α-glucosidase inhibition (%), Mean: 2000 μM. As to the method: An in vitro α-glucosidase inhibitory assay is commonly used to evaluate the inhibitory effects of various compounds on the enzyme α-glucosidase, which is involved in carbohydrate digestion. Inhibiting this enzyme results in slower glucose absorption, which can be beneficial for managing postprandial blood sugar levels in diabetic conditions. This assay was modified from the methods described by Yusuf et al.. The procedure involved mixing 25 μL of the sample, 150 μL of phosphate buffer saline (PBS) pH 7.4, and 75 μL of 10 mM p-NPG. The mixture was incubated at 37 °C for 10 min. Next, 50 μL of α-glucosidase enzyme from Saccharomyces cerevisiae at a concentration of 0.1 U/mL was added, then incubated at 37 °C for 10 min. To terminate the reaction, […] of 0.1 M sodium carbonate (Na2CO3) was added to the mixture. The absorbance was measured using a microplate reader. The percentage of α-glucosidase inhibition was calculated as follows:
α−glucosidase inhibition(%)=(1–{A−B/C−D})×100
Where A was the absorbance of the sample with α-glucosidase enzyme, B was the absorbance of the sample, C was the absorbance of vehicle with α-glucosidase enzyme, and D was the absorbance of the vehicle (blank).

Test [2] can be described thus: DPPH radical scavenging activity. The protocol: The DPPH radical scavenging activity was conducted to thoroughly evaluate the antioxidant potential of andrographolide and its analogues. We modified the assay employing the Sekhon-Loodu and Rupasinghe methods. A DPPH solution was prepared in absolute ethanol, with a concentration of 200 μM. Next, 100 μL of DPPH solution was mixed with 100 μL of the sample in a 96-well plate. The mixture was then incubated for 30 minutes at room temperature. Following incubation, we measured the absorbance at 517 nm using a microplate reader. We tested the antioxidant properties of the compounds at a concentration of 500 μM to detect the weak-to-moderate antioxidants while addressing solubility limitations and minimizing assay artefacts, consistent with previous research. The DPPH radical scavenging activity was precisely expressed as a percentage of DPPH inhibition (% DPPH Inhibition). We selected candidates based on their higher inhibitory activity and prepared various concentrations of these candidates for testing. α-tocopherol, also known as vitamin E, was employed as a positive control. The % DPPH Inhibition was calculated as follows:
%DPPH Inhibition=(1–{A/B})×100
Where A was the absorbance of the DPPH with sample, and B was the absorbance of the DPPH with vehicle (blank).
For orientation: DPPH is a stable violet radical that fades when it is reduced.

Test [3] in a line: Ferric reducing antioxidant power (FRAP) activity. As to conditions: 500 μM; third replicate column. The protocol: The FRAP activity assay was performed to assess the reducing power ability to reduce ferric ions (Fe^3+) to ferrous ions (Fe^2+), following the established method described by Sekhon-Loodu and Rupasinghe. The FRAP reagent was freshly prepared by combining 300 mM acetate buffer pH 3.6, 10 mM 2,4,6- Tri(2-pyridyl)-s-triazine (TPTZ) dissolved in 40 mM HCl, and 20 mM FeCl3 in a ratio of 10:1:1. Ferrous sulfate (FeSO4) was used as a standard, with ascorbic acid serving as a control. The assay was conducted in a 96-well plate by mixing 20 μL of the sample, standard, or positive control with 80 μL of the FRAP solution. The mixture was then incubated for 20 minutes at room temperature, after which we measured absorbance at 595 nm using a microplate reader. The results were expressed as FRAP value, reported as ascorbic acid equivalent in μM (AAE, μM), providing a definitive measure of reducing power.

Test [4] concerns the target T1, α-glucosidase from Saccharomyces cerevisiae. The test is described as follows: Surface plasmon resonance, steady-state affinity. The class given is binding. As to conditions: SPR steady-state affinity model, 25 °C, immobilized yeast α-glucosidase; read-out: dissociation constant (KD). The protocol: All experiments were conducted using a Biacore X100 instrument at 25 °C with a running buffer of 1X PBS-P+ (10 mM phosphate buffer pH 7.4, 2.7 mM KCl, 137 mM NaCl, 0.05% Tween 20) supplemented with 5% DMSO. Compounds were initially dissolved in DMSO to a final concentration of 14 mM. The stock solution was then diluted to 700 μM in 1.05X PBS-P+ to prepare a compound solution containing 1X PBS-P+ with 5% DMSO. This compound solution was utilized to prepare the required concentrations for injections into the Biacore system. α-glucosidase from Saccharomyces cerevisiae was immobilized onto a CM5 chip following standard amine coupling procedures: the CM5 chip, containing channel 1 and 2, was activated with an injection of NHS/EDC mixture with a contact time of 540 s at a flow rate of 10 µL/min. This was followed by multiple injections of α-glucosidase dissolved in 10 mM sodium acetate pH 4.0 (50 µg/mL) onto channel 2, also with a contact time of 540 s at a flow rate of 10 µL/min. Both channels were inactivated by an injection of 1M ethanolamine at a flow rate of 10 µL/min for 540 s. An immobilization level of 3300 RU of α-glucosidase was achieved.
Multi-cycle affinity studies were conducted with a 100 s association phase and a 60 s dissociation phase, using a flow rate of 30 µL/min. Compounds were injected onto the chip at increasing concentrations of 7, 21, 70, 210, and 490 μM. Binding measurements were taken after reference subtraction of channel 1 (no immobilized α-glucosidase) and after subtracting the results from a blank injection with zero analyte concentration. All data evaluation was performed with Biacore X100 evaluation software (version 2.0).
On the technique in general: Surface plasmon resonance follows binding to a sensor surface in real time, without labels.

[5] abbreviates: read-out: α-glucosidase inhibition (%), Mean, 31.2 μM.
Setting [6] is: read-out: α-glucosidase inhibition (%), Mean, 62.5 μM.
Setting [7] is: read-out: α-glucosidase inhibition (%), Mean, 125 μM.
Where [8] appears, read: read-out: α-glucosidase inhibition (%), Mean, 250 μM.
[9] abbreviates: read-out: α-glucosidase inhibition (%), Mean, 500 μM.
[10] abbreviates: read-out: α-glucosidase inhibition (%), Mean, 1000 μM.
Setting [11] is: read-out: α-glucosidase inhibition (%), Mean, 2000 μM.
The mark [12] stands for this setting: read-out: α-glucosidase inhibition (%), replicate 1, 31.2 μM, first replicate column.
Setting [13] is: read-out: α-glucosidase inhibition (%), replicate 1, 62.5 μM, first replicate column.
Where [14] appears, read: read-out: α-glucosidase inhibition (%), replicate 1, 125 μM, first replicate column.
[15] abbreviates: read-out: α-glucosidase inhibition (%), replicate 1, 250 μM, first replicate column.
Setting [16] is: read-out: α-glucosidase inhibition (%), replicate 1, 500 μM, first replicate column.
The mark [17] stands for this setting: read-out: α-glucosidase inhibition (%), replicate 1, 1000 μM, first replicate column.
[18] abbreviates: read-out: α-glucosidase inhibition (%), replicate 1, 2000 μM, first replicate column.
[19] abbreviates: read-out: α-glucosidase inhibition (%), replicate 2, 31.2 μM, second replicate column.
Where [20] appears, read: read-out: α-glucosidase inhibition (%), replicate 2, 62.5 μM, second replicate column.
Where [21] appears, read: read-out: α-glucosidase inhibition (%), replicate 2, 125 μM, second replicate column.
The mark [22] stands for this setting: read-out: α-glucosidase inhibition (%), replicate 2, 250 μM, second replicate column.
Where [23] appears, read: read-out: α-glucosidase inhibition (%), replicate 2, 500 μM, second replicate column.
Setting [24] is: read-out: α-glucosidase inhibition (%), replicate 2, 1000 μM, second replicate column.
[25] abbreviates: read-out: α-glucosidase inhibition (%), replicate 2, 2000 μM, second replicate column.
Where [26] appears, read: read-out: α-glucosidase inhibition (%), replicate 3, 31.2 μM, third replicate column.
[27] abbreviates: read-out: α-glucosidase inhibition (%), replicate 3, 62.5 μM, third replicate column.
Setting [28] is: read-out: α-glucosidase inhibition (%), replicate 3, 125 μM, third replicate column.
Setting [29] is: read-out: α-glucosidase inhibition (%), replicate 3, 250 μM, third replicate column.
Setting [30] is: read-out: α-glucosidase inhibition (%), replicate 3, 500 μM, third replicate column.
The mark [31] stands for this setting: read-out: α-glucosidase inhibition (%), replicate 3, 1000 μM, third replicate column.
[32] abbreviates: read-out: α-glucosidase inhibition (%), replicate 3, 2000 μM, third replicate column.

SMILES strings stand for the structures. Read-outs that look alike come from different tables or passages of the source.

T1 sequence (P38158 whole entry): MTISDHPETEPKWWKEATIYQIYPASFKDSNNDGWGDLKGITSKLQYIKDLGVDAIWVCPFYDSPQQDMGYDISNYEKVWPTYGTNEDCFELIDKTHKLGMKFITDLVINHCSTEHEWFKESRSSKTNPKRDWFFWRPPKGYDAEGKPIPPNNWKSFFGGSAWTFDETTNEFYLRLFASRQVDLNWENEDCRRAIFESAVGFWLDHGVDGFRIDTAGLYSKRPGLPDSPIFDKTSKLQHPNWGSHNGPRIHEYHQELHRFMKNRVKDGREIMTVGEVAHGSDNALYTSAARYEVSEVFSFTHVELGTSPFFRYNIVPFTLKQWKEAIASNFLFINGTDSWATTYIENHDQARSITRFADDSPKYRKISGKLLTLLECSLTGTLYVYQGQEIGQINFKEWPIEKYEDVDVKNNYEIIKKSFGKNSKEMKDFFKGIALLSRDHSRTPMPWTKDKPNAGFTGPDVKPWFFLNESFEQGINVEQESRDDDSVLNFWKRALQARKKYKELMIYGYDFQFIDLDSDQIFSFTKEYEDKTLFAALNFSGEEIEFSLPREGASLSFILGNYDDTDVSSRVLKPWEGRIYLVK

Consider `C[C@H]1O[C@H](O[C@H]2[C@H](O)[C@@H](O)[C@@H](O[C@H]3[C@H](O)[C@@H](O)C(O)O[C@@H]3CO)O[C@@H]2CO)[C@H](O)[C@@H](O)[C@@H]1N[C@H]1C=C(CO)[C@@H](O)[C@H](O)[C@H]1O` (stereo partly drawn) [Acarbose, acarbose], for which the “α-glucosidase inhibition (%), Mean” value in test [1] stood at 38.3925%. For the same compound, the inhibition at 31.2 µM was found to be 6.67% in test [1] (setting [5]), 5.58% in test [1] (setting [12]), 5.89% in test [1] (setting [19]) and 8.54% in test [1] (setting [26]). In addition, the inhibition at 62.5 µM in test [1] (setting [6]) came out at 3.73%; in test [1] (setting [13]), 3.74%; in test [1] (setting [20]), 3.63%; in test [1] (setting [27]), 3.82%. The inhibition at 125 µM in test [1] (setting [7]) worked out at 7.12%; in test [1] (setting [14]) it was 6.97%; in test [1] (setting [21]), 7.34%; in test [1] (setting [28]), 7.06%. For the same compound, the inhibition at 250 µM is 10.6% in test [1] (setting [8]), 10.5% in test [1] (setting [15]), 10.7% in test [1] (setting [22]) and 10.5% in test [1] (setting [29]). Moreover, the inhibition at 500 µM in test [1] (setting [9]) was determined as 31.1%; in test [1] (setting [16]) it was 31.2%; in test [1] (setting [23]), 31.1%; in test [1] (setting [30]), 31.1%. Further, the inhibition at 1000 µM came out at 35.9% in test [1] (setting [10]), 36% in test [1] (setting [17]), 36.7% in test [1] (setting [24]) and 34.8% in test [1] (setting [31]). In addition, the inhibition at 2000 µM in test [1] (setting [11]) was 38.4%; in test [1] (setting [18]), 37.5%; in test [1] (setting [25]), 39.4%; in test [1] (setting [32]), 38.3%.
For `C=C1CC[C@@H]2[C@](C)(CO)[C@H](O)CC[C@@]2(C)[C@@H]1C/C=C1/C(=O)OC[C@H]1O` [Andrographolide], the “% Inhibition (DPPH), replicate 1” value in test [2] (500 μM, first replicate column) is 17.9296%. Further, the “% DPPH Inhibition, Mean” value in test [2] (500 μM, mean of n = 3) was 14.4808%. For the same compound, the “% Inhibition (DPPH), replicate 2” value in test [2] (500 μM, second replicate column) was 11.6610%. In addition, in test [2] (500 μM, third replicate column), the “% Inhibition (DPPH), replicate 3” value worked out at 13.8517%. The “FRAP, Ascorbic acid equivalent, replicate 3” value in test [3] was -2.0327 AAE, μM. Also, in test [4], the Kd was 137 ± 85.1 µM. For the same compound, the “α-glucosidase inhibition (%), Mean” value in test [1] is 21.1432%. In addition, the IC50 in test [1] (concentration range up to 2000 μM, read-out: IC50 (α-glucosidase inhibitory activity)) is over 2000 µM. Moreover, the inhibition at 31.2 µM is 0.0652% in test [1] (setting [5]), -0.3% in test [1] (setting [12]), 1.47% in test [1] (setting [19]) and -0.976% in test [1] (setting [26]). For the same compound, the inhibition at 62.5 µM was -0.749% in test [1] (setting [6]), 2.19% in test [1] (setting [13]), 3.06% in test [1] (setting [20]) and -7.49% in test [1] (setting [27]). The inhibition at 125 µM in test [1] (setting [7]) was 4.88%; in test [1] (setting [14]), 6.76%; in test [1] (setting [21]) it was 3.19%; in test [1] (setting [28]) it was 5.68%. For the same compound, the inhibition at 250 µM in test [1] (setting [8]) was 1.93%; in test [1] (setting [15]), -2.97%; in test [1] (setting [22]), 3.6%; in test [1] (setting [29]) it was 5.16%. The inhibition at 500 µM stood at 11.9% in test [1] (setting [9]), 13.1% in test [1] (setting [16]), 12% in test [1] (setting [23]) and 10.6% in test [1] (setting [30]). Besides, the inhibition at 1000 µM stood at 13.6% in test [1] (setting [10]), 17.1% in test [1] (setting [17]), 13.5% in test [1] (setting [24]) and 11% in test [1] (setting [31]). Also, the inhibition at 2000 µM in test [1] (setting [11]) is 21.1%; in test [1] (setting [18]), 22.5%; in test [1] (setting [25]) it was 21%; in test [1] (setting [32]) it was 19.9%.
As to `Cc1c(C)c2c(c(C)c1O)CC[C@@](C)(CCC[C@H](C)CCC[C@H](C)CCCC(C)C)O2` [α-tocopherol], the IC50 in test [2] (200 μM DPPH solution) is about 25 µM.

As usually defined, the inhibition is the change of the read-out against control, counted positive when it falls. What is called Kd is a measure of binding affinity in units of concentration. In general, IC50 refers to the concentration that inhibits the measured activity by half.
